Values quoted from earlier work in patent US20160030469A1, “Human End Uses for a Gas Transporting Rheological Medium” (priority 2014, published 2016).

Conditions: equilibrium with air (pO2=0.21) at 77° F.

For `O=O` [oxygen], the “solubility limit of oxygen in water” value is given as “approximately 8.3 mg/l”.
